Reference: PubChem BioAssay (NCI)
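Test compounds were applied to cells in 96-well plates for 48 hours at 5 doses. GI50 marks 50% less growth. TGI marks complete inhibition of growth.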

Legend:
Experiment in all cases: DTP human tumour cell line panel, 48 h
UACC-257 melanoma = tested on: UACC-257 melanoma
MALME-3M melanoma = tested on: MALME-3M melanoma
MOLT-4 leukemia = tested on: MOLT-4 leukemia
LOX IMVI melanoma = tested on: LOX IMVI melanoma
NCI-H460 lung = tested on: NCI-H460 lung
IGROV1 ovarian = tested on: IGROV1 ovarian
T-47D breast = tested on: T-47D breast
RXF 393 renal = tested on: RXF 393 renal
NCI-H23 lung = tested on: NCI-H23 lung
COLO 205 colon = tested on: COLO 205 colon

O=C1C=Cc2c(I)sc(I)c21
TGI (UACC-257 melanoma): 53.5 µM
TGI (MALME-3M melanoma): 33.4 µM
TGI (MOLT-4 leukemia): 42.3 µM
TGI (LOX IMVI melanoma): 25.2 µM
TGI (NCI-H460 lung): > 100 µM
TGI (IGROV1 ovarian): 31 µM
TGI (T-47D breast): 41.4 µM
TGI (RXF 393 renal): 40.3 µM
TGI (NCI-H23 lung): 36.7 µM
TGI (COLO 205 colon): 36.8 µM

Cc1ccc(C(=O)Nc2ccc(CP(=O)(O)O)cc2)cc1NC(=O)Nc1cc(C(=O)Nc2ccc(CP(=O)(O)O)cc2)ccc1C
TGI (UACC-257 melanoma): > 100 µM
TGI (MALME-3M melanoma): > 100 µM
TGI (MOLT-4 leukemia): > 100 µM
TGI (LOX IMVI melanoma): > 100 µM
TGI (NCI-H460 lung): > 100 µM
TGI (IGROV1 ovarian): > 100 µM
TGI (T-47D breast): > 100 µM
TGI (RXF 393 renal): > 100 µM
TGI (NCI-H23 lung): > 100 µM
TGI (COLO 205 colon): > 100 µM

Clc1ccc(N=Cc2cc3cc(Br)ccc3nc2Cl)cc1
TGI (UACC-257 melanoma): > 50 µM
TGI (MALME-3M melanoma): > 50 µM
TGI (MOLT-4 leukemia): > 50 µM
TGI (LOX IMVI melanoma): > 50 µM
TGI (NCI-H460 lung): > 50 µM
TGI (IGROV1 ovarian): > 50 µM
TGI (T-47D breast): > 50 µM
TGI (RXF 393 renal): > 50 µM
TGI (NCI-H23 lung): > 50 µM
TGI (COLO 205 colon): > 50 µM

Cc1c(C)c(C)c(CSC(=N)N)c(C)c1C
TGI (UACC-257 melanoma): 27.3 µM
TGI (MALME-3M melanoma): 32.9 µM
TGI (MOLT-4 leukemia): 33 µM
TGI (LOX IMVI melanoma): 79.2 µM
TGI (NCI-H460 lung): 26.8 µM
TGI (IGROV1 ovarian): > 100 µM
TGI (T-47D breast): 36.6 µM
TGI (RXF 393 renal): 33.2 µM
TGI (NCI-H23 lung): 33.4 µM
TGI (COLO 205 colon): 28.1 µM

Clc1ccc(CSCc2ccc(Cl)cc2Cl)c(Cl)c1
TGI (UACC-257 melanoma): 64.7 µM
TGI (MALME-3M melanoma): 72.5 µM
TGI (MOLT-4 leukemia): > 100 µM
TGI (LOX IMVI melanoma): > 100 µM
TGI (NCI-H460 lung): > 100 µM
TGI (IGROV1 ovarian): > 100 µM
TGI (T-47D breast): > 100 µM
TGI (RXF 393 renal): 94.2 µM
TGI (NCI-H23 lung): > 100 µM
TGI (COLO 205 colon): > 100 µM

CCNC(=O)Cc1nc2c(=O)[nH]cnc2n1C1OC(CO)C(O)C1O (stereo not given)
TGI (UACC-257 melanoma): > 100 µM
TGI (MALME-3M melanoma): > 100 µM
TGI (MOLT-4 leukemia): > 100 µM
TGI (LOX IMVI melanoma): > 100 µM
TGI (NCI-H460 lung): > 100 µM
TGI (IGROV1 ovarian): > 100 µM
TGI (T-47D breast): > 100 µM
TGI (RXF 393 renal): > 100 µM
TGI (NCI-H23 lung): > 100 µM
TGI (COLO 205 colon): > 100 µM

N#CC(C#N)=Cc1ccc(-c2ccc(-c3nc4ccccc4s3)cc2)s1
GI50 (UACC-257 melanoma): 65.3 µM
TGI (UACC-257 melanoma): > 100 µM
GI50 (MALME-3M melanoma): 16.6 µM
TGI (MALME-3M melanoma): 54.5 µM
GI50 (MOLT-4 leukemia): 22.8 µM
TGI (MOLT-4 leukemia): 68.5 µM
GI50 (LOX IMVI melanoma): 8.5 µM
TGI (LOX IMVI melanoma): 23.5 µM
GI50 (NCI-H460 lung): 26 µM
TGI (NCI-H460 lung): > 100 µM
GI50 (IGROV1 ovarian): 4.62 µM
TGI (IGROV1 ovarian): 27.1 µM
GI50 (T-47D breast): 18.2 µM
TGI (T-47D breast): 73.8 µM
GI50 (RXF 393 renal): 40.5 µM
TGI (RXF 393 renal): > 100 µM
GI50 (NCI-H23 lung): 18.1 µM
TGI (NCI-H23 lung): 52.9 µM
GI50 (COLO 205 colon): 23.7 µM
TGI (COLO 205 colon): > 100 µM

CCC(C)(C)c1ccc(Oc2cccc(C(=O)O)c2)cc1
TGI (UACC-257 melanoma): > 100 µM
TGI (MALME-3M melanoma): > 100 µM
TGI (MOLT-4 leukemia): 70.7 µM
TGI (LOX IMVI melanoma): > 100 µM
TGI (NCI-H460 lung): > 100 µM
TGI (IGROV1 ovarian): > 100 µM
TGI (T-47D breast): > 100 µM
TGI (RXF 393 renal): > 100 µM
TGI (NCI-H23 lung): > 100 µM
TGI (COLO 205 colon): > 100 µM

CC1CC(=O)NC2CC1C2(C)C (stereo not given)
TGI (UACC-257 melanoma): > 100 µM
TGI (MALME-3M melanoma): > 100 µM
TGI (MOLT-4 leukemia): > 100 µM
TGI (LOX IMVI melanoma): > 100 µM
TGI (NCI-H460 lung): > 100 µM
TGI (IGROV1 ovarian): > 100 µM
TGI (T-47D breast): > 100 µM
TGI (RXF 393 renal): > 100 µM
TGI (NCI-H23 lung): > 100 µM
TGI (COLO 205 colon): > 100 µM

CCOC(=O)C1C(=O)CC(C)(O)C(C(=O)OCC)C1c1ccc(OC)cc1 (stereo not given)
TGI (UACC-257 melanoma): > 100 µM
TGI (MALME-3M melanoma): > 100 µM
TGI (MOLT-4 leukemia): > 100 µM
TGI (LOX IMVI melanoma): > 100 µM
TGI (NCI-H460 lung): > 100 µM
TGI (IGROV1 ovarian): > 100 µM
TGI (T-47D breast): > 100 µM
TGI (RXF 393 renal): > 100 µM
TGI (NCI-H23 lung): > 100 µM
TGI (COLO 205 colon): > 100 µM

Cc1ccc2nc(Cl)c(/C=N/N3C(=O)/C(=C/Cc4ccco4)N=C3c3ccccc3)cc2c1
TGI (UACC-257 melanoma): 71.8 µM
TGI (MALME-3M melanoma): > 100 µM
TGI (MOLT-4 leukemia): > 92 µM
TGI (LOX IMVI melanoma): > 69.3 µM
TGI (NCI-H460 lung): 75.9 µM
TGI (IGROV1 ovarian): 53.9 µM
TGI (T-47D breast): > 100 µM
TGI (RXF 393 renal): > 100 µM
TGI (NCI-H23 lung): > 84.5 µM
TGI (COLO 205 colon): > 100 µM

C(=N/Nc1ccccn1)/c1cccnc1
TGI (UACC-257 melanoma): > 100 µM
TGI (MALME-3M melanoma): > 100 µM
TGI (MOLT-4 leukemia): > 100 µM
TGI (LOX IMVI melanoma): > 100 µM
TGI (NCI-H460 lung): > 100 µM
TGI (IGROV1 ovarian): > 100 µM
TGI (T-47D breast): > 100 µM
TGI (RXF 393 renal): > 100 µM
TGI (NCI-H23 lung): > 100 µM
TGI (COLO 205 colon): > 100 µM

CO[C@H]1C[C@H](O[C@H]2CC[C@]3(C=O)[C@H]4CC[C@]5(C)[C@@H](C6=CC(=O)OC6)CC[C@]5(O)[C@@H]4CC[C@]3(O)C2)O[C@H](C)[C@H]1O[C@@H]1O[C@H](CO[C@@H]2O[C@H](CO)[C@@H](O)[C@H](O)[C@H]2O)[C@@H](O)[C@H](O)[C@H]1O
TGI (UACC-257 melanoma): 1.27 µM
TGI (MALME-3M melanoma): 0.243 µM
TGI (MOLT-4 leukemia): 1.07 µM
TGI (LOX IMVI melanoma): 0.137 µM
TGI (NCI-H460 lung): 0.0425 µM
TGI (IGROV1 ovarian): 0.825 µM
TGI (T-47D breast): 0.385 µM
TGI (RXF 393 renal): 0.0802 µM
TGI (NCI-H23 lung): 0.0531 µM
TGI (COLO 205 colon): 0.348 µM

O=C(O)C1CCCN1Cc1ccc2c(c1)OCO2 (stereo not given)
TGI (UACC-257 melanoma): > 100 µM
TGI (MALME-3M melanoma): > 100 µM
TGI (MOLT-4 leukemia): > 100 µM
TGI (LOX IMVI melanoma): > 100 µM
TGI (NCI-H460 lung): > 100 µM
TGI (IGROV1 ovarian): > 100 µM
TGI (T-47D breast): > 100 µM
TGI (RXF 393 renal): > 100 µM
TGI (NCI-H23 lung): > 100 µM
TGI (COLO 205 colon): > 100 µM

CC(C)(C)C1=NN=C2c3ccccc3C(=O)C21 (stereo not given)
TGI (UACC-257 melanoma): > 100 µM
TGI (MALME-3M melanoma): > 100 µM
TGI (MOLT-4 leukemia): 85 µM
TGI (LOX IMVI melanoma): > 100 µM
TGI (NCI-H460 lung): > 100 µM
TGI (IGROV1 ovarian): > 100 µM
TGI (T-47D breast): > 100 µM
TGI (RXF 393 renal): > 100 µM
TGI (NCI-H23 lung): > 100 µM
TGI (COLO 205 colon): > 100 µM

Cc1ccc2cccc(OC(=O)c3cc4c(cc3Cl)Sc3nccn3S4(=O)=O)c2n1
TGI (UACC-257 melanoma): 25.4 µM
TGI (MALME-3M melanoma): 47.4 µM
TGI (MOLT-4 leukemia): 19.8 µM
TGI (LOX IMVI melanoma): 19.8 µM
TGI (NCI-H460 lung): 10.4 µM
TGI (IGROV1 ovarian): 17.5 µM
TGI (T-47D breast): 13 µM
TGI (RXF 393 renal): 20.5 µM
TGI (NCI-H23 lung): 63.6 µM
TGI (COLO 205 colon): 29.4 µM

CCCCN1C(=O)C[C@H]2[C@@H]3CCc4cc(OCCN5CCCC5)ccc4[C@H]3CC[C@]2(C)C1=O
TGI (UACC-257 melanoma): 13.4 µM
TGI (MALME-3M melanoma): 16.1 µM
TGI (MOLT-4 leukemia): 14.3 µM
TGI (LOX IMVI melanoma): 10.8 µM
TGI (NCI-H460 lung): 21.3 µM
TGI (IGROV1 ovarian): 30.7 µM
TGI (T-47D breast): 30.4 µM
TGI (RXF 393 renal): 4.59 µM
TGI (NCI-H23 lung): 25.6 µM
TGI (COLO 205 colon): 3.95 µM

CC(=O)OCC1OC(OC2CC3C(C)(C)C(=O)CC[C@]3(C)C3CC[C@]45C[C@]4(CCC5[C@@H](C)CC(O)C(O)C(C)(C)O)[C@]23C)C(O)C(O)C1O (stereo not given in full)
TGI (UACC-257 melanoma): 23.6 µM
TGI (MALME-3M melanoma): 27.5 µM
TGI (MOLT-4 leukemia): 15.6 µM
TGI (LOX IMVI melanoma): 12.6 µM
TGI (NCI-H460 lung): 27.1 µM
TGI (IGROV1 ovarian): 23.2 µM
TGI (T-47D breast): 18.8 µM
TGI (RXF 393 renal): 21.9 µM
TGI (NCI-H23 lung): 32.7 µM
TGI (COLO 205 colon): 18.5 µM
